Test results published in patent US20210236476A1, “METHODS OF TREATING CANCER WITH SMALL MOLECULE PD-L1 INHIBITORS” (CHEMOCENTRYX, INC., priority 2018, published 2021).
pIC50: −log10 of the molar value.

Biological target: T1, human PD-L1 / human PD-1 interaction (Homo sapiens, UniProt Q9NZQ7)
T1 construct: purchased R&D (PD-L1); ACRO Biosystems (PD-1, biotin)
Assay: ELISA of PD-1/PD-L1 interaction
Format: binding
Procedure: The activity of Compound 1.041 was assessed with an ELISA assay assessing the direct binding of recombinant PD-1 and PD-L1 proteins (FIG. 1A), a dimerization ELISA assay assessing the direct binding/dimerization of recombinant PD-L1 proteins (FIG. 1B), a cell based assay measuring the downstream signaling following the interaction of PD-1 and PD-L1 using a Luciferase reporter assay with cell lines overexpressing PD-1 and PD-L1 (FIG. 1C), and a mixed lymphocyte reaction assay measuring the functional outcome of upregulation of IFNg secretion, using allogenic primary human immune cells (FIG. 1D). Briefly, the mixed lymophocyte reaction assay was performed as follows: Dendritic cells and CD4+T Cells from unmatched donors were cultured together for 5 days in 96 well-flat bottom plates. Test compound was added as indicated at starting concentration of 1 μM with 1:4 dilutions with DMSO. Supernatants were harvested after 5 days of incubation and detection of human IFNg was performed by ELISA. […]
96 Well plates were coated with 1 μg/mL of human PD-L1 (obtained from R&D) in
PBS overnight at 4° C. The wells were then blocked with 2% BSA in PBS (WN) with 0.05% TWEEN-20 for 1 hour at 37° C. The plates were washed 3 times with PBS/0.05% TWEEN-20 and the compounds were serial diluted (1:5) in dilution medium and added to the ELISA plates. Human PD-1 and biotin 0.3μg/mL (ACRO Biosystems) were added and incubated for 1 hour at 37° C. then washed 3 times with PBS/0.05% TWEEN-20. A second block was performed with 2% BSA in PBS (WN)/0.05% TWEEN-20 for 10 min at 37° C. and was washed 3 times with PBS/0.05% TWEEN-20. Streptavidin—HRP was added for 1 hour at 37° C. then washed 3 times with PBS/0.05% TWEEN-20. TMB substrate was added and reacted for 20 min at 37° C. A stop solution (2 N aqueous H2SO4) was added. The absorbance was read at 450 nm using a micro-plate spectrophotometer.

T1 sequence (Q9NZQ7 19-239 limits assumed): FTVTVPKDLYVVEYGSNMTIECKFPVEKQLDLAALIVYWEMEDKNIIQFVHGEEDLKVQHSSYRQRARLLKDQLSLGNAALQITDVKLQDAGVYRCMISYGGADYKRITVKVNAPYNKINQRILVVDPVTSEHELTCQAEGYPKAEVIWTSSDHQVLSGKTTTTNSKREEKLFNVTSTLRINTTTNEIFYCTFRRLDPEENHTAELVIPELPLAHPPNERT

pIC50, > 8.30:
CCOc1cc(O[C@H]2CCc3c(-c4cccc(OCCCN5CCC(O)CC5)c4C)cccc32)c(Cl)cc1CN[C@@H](CO)C(=O)O
CCOc1cc(O[C@H]2CCc3c(-c4cccc(OCCCN5CCC(O)CC5)c4C)cccc32)c(Cl)cc1CN[C@H](C(=O)O)[C@@H](C)O
CCOc1cc(O[C@H]2CCc3c(-c4cccc(OCCCN5CC[C@@H](O)C5)c4C)cccc32)c(Cl)cc1CN[C@@H](CO)C(=O)O
CCOc1cc(O[C@H]2CCc3c(-c4cccc(OCCCN5CC[C@@H](O)C5)c4C)cccc32)c(Cl)cc1CN[C@H](C(=O)O)[C@@H](C)O
CC(C)(O)[C@H](NCc1cc(Cl)c(O[C@H]2CCc3c(-c4cccc(OCCCN5CCC(F)CC5)c4Cl)cccc32)cc1OCc1cncc(C#N)c1)C(=O)O
CC(C)OC(=O)[C@](C)(CO)NCc1cc(Cl)c(O[C@H]2CCc3c(-c4cccc(OCCCN5CC(O)C5)c4Cl)cccc32)cc1OCc1cncc(C#N)c1
Cc1c(OCCCN2CC(F)C2)cccc1-c1cccc2c1CC[C@@H]2Oc1cc(OCc2cncc(C#N)c2)c(CNCC2CCC(=O)N2)cc1Cl (stereo partly shown)
N#Cc1cc(C#N)cc(COc2cc(O[C@@H]3c4cccc(-c5cccc(OCCCN6CC(O)C6)c5Cl)c4C[C@@H]3F)c(Cl)cc2CNC[C@H]2CCC(=O)N2)c1
C[C@@](CO)(NCc1cc(Cl)c(O[C@@H]2c3cccc(-c4cccc(OCCCN5CC(O)C5)c4Cl)c3C[C@@H]2F)cc1OCc1cc(C#N)cc(C#N)c1)C(=O)O
N#Cc1cncc(COc2cc(O[C@H]3CCc4c(-c5cccc(OCCCN6CC[C@@H](F)C6)c5Cl)cccc43)c(Cl)cc2CN[C@@H]2CCCC[C@@H]2O)c1
N#Cc1cncc(COc2cc(O[C@H]3CCc4c(-c5cccc(OCCCN6CCC(F)CC6)c5Cl)cccc43)c(Cl)cc2CN[C@@H]2CCCC[C@@H]2O)c1
N#Cc1cncc(COc2cc(O[C@H]3CCc4c(-c5cccc(OCCCN6CC[C@H](F)C6)c5Cl)cccc43)c(Cl)cc2CN[C@@H]2CCCC[C@@H]2O)c1
CC1(O)CN(CCCOc2cccc(-c3cccc4c3CC[C@@H]4Oc3cc(OCc4cncc(C#N)c4)c(CN[C@@](C)(CO)C(=O)O)cc3Cl)c2Cl)C1
CCOC(=O)[C@](C)(CO)NCc1cc(Cl)c(O[C@H]2CCc3c(-c4cccc(OCCCN5CC(O)C5)c4Cl)cccc32)cc1OCc1cncc(C#N)c1
C[C@@](CO)(NCc1cc(Cl)c(O[C@@H]2c3cccc(-c4cccc(OCCCN5CC(O)C5)c4Cl)c3C[C@@H]2F)cc1OCc1cncc(C#N)c1)C(=O)O
C[C@@](CO)(NCc1cc(Cl)c(O[C@@H]2c3cccc(-c4cccc(OCCCN5CC(F)C5)c4Cl)c3C[C@@H]2F)cc1OCc1cncc(C#N)c1)C(=O)O
CCOc1cc(O[C@H]2CCc3c(-c4cccc(OCCCN5CC(O)C5)c4Cl)cccc32)c(Cl)cc1CN[C@@](C)(CO)C(=O)O
CC(CO)(NCc1cc(Cl)c(O[C@H]2CCc3c(-c4cccc(OCCCN5CC(O)C5)c4Cl)cccc32)cc1OCc1cccnc1)C(=O)O (stereo partly shown)
CC(CO)(NCc1cc(Cl)c(O[C@H]2CCc3c(-c4cccc(OCCCN5CCCCC5)c4Cl)cccc32)cc1OCc1cncc(C#N)c1)C(=O)O (stereo partly shown)
CC(CO)(NCc1cc(Cl)c(O[C@H]2CCc3c(-c4cccc(OCCCN5CCOCC5)c4Cl)cccc32)cc1OCc1cncc(C#N)c1)C(=O)O (stereo partly shown)
CC(CO)(NCc1cc(Cl)c(O[C@H]2CCc3c(-c4cccc(OCCCN5CC(F)C5)c4Cl)cccc32)cc1OCc1cncc(C#N)c1)C(=O)O (stereo partly shown)
C[C@@](CO)(NCc1cc(Cl)c(OC2CCc3c(-c4cccc(OCCCN5CC(O)C5)c4Cl)cc(F)cc32)cc1OCc1cncc(C#N)c1)C(=O)O (stereo partly shown)
